The text below walks through data of paper PMC11677692, “Analysis of Thiodiphenol in Rat Urine as a Biomarker of Exposure to Temephos” (Journal of Xenobiotics, 2024).

Structures are written as SMILES. “And” between values parts separate entries of the source, which are not always exact repeats. Equal entries are not always repeated. Where two headings read alike, the source gives them in different places.

Data set [1] is described as follows: Enzymatic hydrolysis (β-glucuronidase/sulfatase) of urine of temephos-treated rats, HPLC-DAD. The class given is in vitro ADME, rat. Conditions: 50 °C, 1 h, vs non-hydrolyzed urine. How it is done: Temephos urinary metabolites were enzymatically deconjugated, according to Cruz-Hurtado et al., with some modifications. Briefly, 200 µL of urine and 2000 IU of β-glucuronidase/sulfatase were added to a 0.5 M sodium acetate buffer at pH 5 to reach a final volume of 1 mL. The mixture was incubated at 50 °C in a water bath for an hour. To determine the optimal concentration of deconjugated temephos metabolites in the enzymatic hydrolysis assay, the concentration of β-glucuronidase/sulfatase was assessed from 250 to 4000 IU/mL. The enzymatic reaction was stopped by adding 10 mL of methylene chloride and cooling at room temperature; the mixture was vortexed for 1 min and then centrifuged at 1600× g for 15 min at room temperature. The organic phase was collected, and another residue extraction was performed using 10 mL of diethyl ether. […] Urinary levels of temephos metabolites were adjusted by creatinine, which was determined using a commercial kit from Randox (CR510, Randox Laboratories Ltd., Crumlin, UK).
Temephos and its metabolites were analyzed by injecting urinary extracts into a liquid chromatograph equipped with a quaternary pump, autosampler, degasser, and UV-Vis Diode-Array detector (Agilent 1200, Agilent Technologies, Palo Alto, CA, USA). […] The concentrations of temephos, TDP, TDP-SO, and BPS were determined using calibration graphs of each compound. […]

Data set [2] in a line: Urinary excretion kinetics of temephos metabolites after a single oral dose of temephos. The format is in vivo, adult male Wistar rats. As to conditions: for Tmax / k el / half-life: male, Wistar, rat, po; for Tmax / k el / half-life / parent compound in urine: 300 mg/kg; for parent compound in urine: urine samples with and without enzyme hydrolysis, single oral dose 300 mg/kg. On the procedure:
Animals were individually housed in acrylic metabolism cages for the collection of urine for 8:16 h cycles (inside and outside the cage) for their adaptation during 8 d before treatment. Animals were orally administered with a single dose of temephos (300 mg/kg) emulsified with saline solution (0.9% NaCl). Urine was collected at intervals of 0–8, 8–16, 16–24, 24–48, 60–72, 84–96, 108–120, 132–144, 156–168, 228–240, and 324–336 h. Urine samples were collected and immediately centrifuged at 1600× g for 5 min at 4 °C (Eppendorf 5804R, Hamburg, Germany) and stored at −20 °C until processed for analysis.
Temephos urinary metabolites were enzymatically deconjugated, according to Cruz-Hurtado et al., with some modifications. Briefly, 200 µL of urine and 2000 IU of β-glucuronidase/sulfatase were added to a 0.5 M sodium acetate buffer at pH 5 to reach a final volume of 1 mL. The mixture was incubated at 50 °C in a water bath for an hour. To determine the optimal concentration of deconjugated temephos metabolites in the enzymatic hydrolysis assay, the concentration of β-glucuronidase/sulfatase was assessed from 250 to 4000 IU/mL. The enzymatic reaction was stopped by adding 10 mL of methylene chloride and cooling at room temperature; the mixture was vortexed for 1 min and then centrifuged at 1600× g for 15 min at room temperature. The organic phase was collected, and another residue extraction was performed using 10 mL of diethyl ether. Both supernatants were pooled and dried using anhydrous sodium sulfate. The solvent evaporated under a nitrogen current. The extracts were stored at −20 °C until analysis by HPLC-DAD. Extracts were dissolved in 200 µL of acetonitrile immediately before analysis. Urinary levels of temephos metabolites were adjusted by creatinine, which was determined using a commercial kit from Randox (CR510, Randox Laboratories Ltd., Crumlin, UK).
Temephos and its metabolites were analyzed by injecting urinary extracts into a liquid chromatograph equipped with a quaternary pump, autosampler, degasser, and UV-Vis Diode-Array detector (Agilent 1200, Agilent Technologies, Palo Alto, CA, USA). A ZORBAX Eclipse XDB C-18 column (4.6 × 150 mm, 5 µm) was used (Agilent Technologies, Deerfield, IL, USA). The detector wavelength was set at 254 nm, the reference wavelength was 550 nm, and the mobile phase was modified from Verdín-Betancourt et al.; it consisted of methanol (A), acetonitrile (B), and water (C), with initial solvent conditions of 27% A, 8% B, and 65% C at a rate of 1 mL/min at 25 °C. After injecting the sample (with different volumes), a 2.5 min linear gradient change was applied to achieve 23.5% A, 12.5% B, and 64% C, which was maintained for 1 min, followed by a second 2.5 min linear gradient change to 18% A, 18% B, and 64% C. Afterwards, another 4 min linear gradient change was applied to reach 20% A, 30% B, and 50% C. This condition was maintained for 2 min. Then, a fourth gradient change was applied, achieving 70% A, 25% B, and 5% C. In the end, the initial conditions were re-established to 27% A, 8% B, and 65% C. The column was equilibrated for 2 min before the next injection. The identity of temephos and its metabolites were confirmed by their retention time (tret) and UV spectra of standards. The concentrations of temephos, TDP, TDP-SO, and BPS were determined using calibration graphs of each compound. The concentration of the non-identified metabolite (NIM) was estimated using the Tem-dox-SO calibration graph due to their similarity in the UV spectrum and tret.
The urinary elimination constant (KElim-U) to determine the half-life of elimination (t1/2 Elim-U) for TDP, BPS, and NIMs was estimated from the slope of the curves in the Rate of Excretion plots (log-linear Rate of excretion (ΔU/Δt) versus mid-point time). […]

Setting [3] is: urine, male adult rats, single oral dose of temephos 300 mg/kg.
The mark [4] stands for this setting: urine, urine, male adult rats, single oral dose of temephos 300 mg/kg, read-out: KElim-U 2nd Phase (converted).
Where [5] appears, read: urine, urine, male adult rats, single oral dose of temephos 300 mg/kg, read-out: t1/2 Elim-U 2nd Phase (converted).
[6] abbreviates: urine, rats, single oral dose of temephos 300 mg/kg.

The term Tmax denotes the time from dosing to the highest level.

As for `O=S(=O)(c1ccc(O)cc1)c1ccc(O)cc1` [BPS, 4,4′-sulfonyldiphenol], in data set [1], the “increase of level in urine extracts after enzyme hydrolysis” value is reported as “about 2 fold”. In addition, in data set [2] (setting [3]), the Tmax came to 9 ± 6 h, the “AUC0–∞” value turned out to be 2455 ± 974 nmol-h/mg Creatinine and the Cmax-U is on record as 41 ± 16 nmol/mg Creatinine. Moreover, in data set [2] (setting [4]), the k el was 1.09e-05 s⁻¹. The half-life in data set [2] (setting [5]) is 17.7 h. In data set [2] (urine, urine, rats, single oral dose of temephos 300 mg/kg, read-out: t1/2 Elim-U (monophasic decline, one-compartment model) (converted)), the half-life is 17.7 h. In addition, in data set [2] (setting [6]), the “time after which detection in urine was difficult” value is reported as 48 h and the “time detected in urine after dosing” value was found to be 40 h.
Turning to `Oc1ccc(Sc2ccc(O)cc2)cc1` [TDP, 4,4′-thiodiphenol], the “increase of level in urine extracts after enzyme hydrolysis” value in data set [1] was “more than 60 fold”. In data set [2] (setting [3]), the Tmax worked out at 9 h; the “AUC0–∞” value was 297,540 ± 76,013 nmol-h/mg Creatinine; the Cmax-U is 366 nmol/mg Creatinine and 366 ± 115 nmol/mg Creatinine; the tmax-U is 10 ± 4 h. The k el in data set [2] (urine, urine, male adult rats, single oral dose of temephos 300 mg/kg, read-out: KElim-U 1st Phase (converted)) is 6.93e-06 s⁻¹. In addition, in data set [2] (setting [4]), the k el is 7.08e-07 s⁻¹. For the same molecule, the half-life in data set [2] (urine, urine, male adult rats, single oral dose of temephos 300 mg/kg, read-out: t1/2 Elim-U 1st Phase (converted)) is 27.8 h. For the same molecule, the half-life in data set [2] (setting [5]) is 272 h. For the same molecule, in data set [2] (setting [6]), the “Cmax fold higher than that of BPS” value was determined as 8.9 fold, the “Cmax fold higher than that of NIMs” value is listed as 4.2 fold and the “time detected in urine after dosing” value was “up to 320 h”.
As for `COP(=S)(OC)Oc1ccc(Sc2ccc(OP(=S)(OC)OC)cc2)cc1` [Temephos, temephos], the “parent compound in urine” value was “practically undetectable” in data set [2] and “only traces” in data set [2] (listed as temephos).
